Results: ChEMBL document CHEMBL1201862, “PubChem BioAssay data set” (2004)
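Growth conditions: 96-well plates. Treatment: test compound, 48 hours, 5 concentrations. Analysis: linear interpolation between bracketing concentrations; unreached endpoints set to highest concentration. GI50: concentration for 50% inhibition of growth.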 Activity calls are given as the source filed them. Cut-off read from the data, not from the text of the source: active = GI50 up to about 1.1 µM and inactive = higher.

Key:
Assay in all cases: growth of human tumour cells (NCI), 48 h
786-0 = system: 786-0
BT-549 = system: BT-549
COLO 205 = system: COLO 205
HCT-15 = system: HCT-15
HOP-62 = system: HOP-62
HOP-92 = system: HOP-92
Hs-578T = system: Hs-578T
NCI-H23 = system: NCI-H23
PC-3 = system: PC-3
SF-268 = system: SF-268
SF-295 = system: SF-295
SK-MEL-2 = system: SK-MEL-2
SK-MEL-5 = system: SK-MEL-5
SN12C = system: SN12C
SW-620 = system: SW-620
T47D = system: T47D
TK-10 = system: TK-10
UACC-257 = system: UACC-257
UACC-62 = system: UACC-62
M19-MEL = system: M19-MEL

Row | Structure (SMILES) | GI50 (786-0) | GI50 (BT-549) | GI50 (COLO 205) | GI50 (HCT-15) | GI50 (HOP-62) | GI50 (HOP-92) | GI50 (Hs-578T) | GI50 (NCI-H23) | GI50 (PC-3) | GI50 (SF-268) | GI50 (SF-295) | GI50 (SK-MEL-2) | GI50 (SK-MEL-5) | GI50 (SN12C) | GI50 (SW-620) | GI50 (T47D) | GI50 (TK-10) | GI50 (UACC-257) | GI50 (UACC-62) | GI50 (M19-MEL)
1 | C/C(=C\c1ccc(Cl)cc1)C(C)(C)C(=O)O | > 100 µM (inactive) | > 100 µM (inactive) | > 100 µM (inactive) | > 100 µM | > 100 µM (inactive) | > 100 µM (inactive) | > 100 µM (inactive) | > 100 µM (inactive) | > 100 µM (inactive) | > 100 µM (inactive) | > 100 µM (inactive) | > 100 µM (inactive) | > 100 µM (inactive) | > 100 µM (inactive) | > 100 µM (inactive) | > 100 µM (inactive) | > 100 µM (inactive) | > 100 µM (inactive) | > 100 µM (inactive) | –
2 | O=C(O)c1ccc([N+](=O)[O-])c2c(=O)c3ccccc3[nH]c12 | > 100 µM (inactive) | – | > 100 µM (inactive) | > 100 µM | > 100 µM (inactive) | > 100 µM (inactive) | – | – | – | > 100 µM (inactive) | > 100 µM (inactive) | > 100 µM (inactive) | > 100 µM (inactive) | > 100 µM (inactive) | > 100 µM (inactive) | – | – | > 100 µM (inactive) | > 100 µM (inactive) | > 100 µM (inactive)
3 | CN(CC(=O)O)S(=O)(=O)c1ccc(F)cc1 | > 100 µM (inactive) | – | > 100 µM (inactive) | > 100 µM | – | > 100 µM (inactive) | – | > 100 µM (inactive) | – | > 100 µM (inactive) | > 100 µM (inactive) | > 100 µM (inactive) | > 100 µM (inactive) | > 100 µM (inactive) | > 100 µM (inactive) | – | > 100 µM (inactive) | > 100 µM (inactive) | > 100 µM (inactive) | > 100 µM (inactive)
4 | O/N=C(\c1nc2ccc(Cl)cc2nc1O)C(O)c1ccc(Cl)cc1Cl (configuration not stated) | > 100 µM (inactive) | – | > 100 µM (inactive) | > 100 µM | > 100 µM (inactive) | > 100 µM (inactive) | – | > 100 µM (inactive) | – | > 100 µM (inactive) | > 100 µM (inactive) | – | > 100 µM (inactive) | > 100 µM (inactive) | > 100 µM (inactive) | – | – | > 100 µM (inactive) | > 100 µM (inactive) | > 100 µM (inactive)
5 | C/C(CC(=O)Nc1ccc(Cl)c(Cl)c1)=N/NC(=O)C[n+]1ccccc1 | 43.1 µM (inactive) | – | 31.8 µM (inactive) | 30.5 µM | > 100 µM (inactive) | > 100 µM (inactive) | – | > 100 µM (inactive) | – | > 100 µM (inactive) | > 100 µM (inactive) | > 100 µM (inactive) | > 100 µM (inactive) | > 100 µM (inactive) | – | – | > 100 µM (inactive) | > 100 µM (inactive) | > 100 µM (inactive) | > 100 µM (inactive)
6 | CCCCN1C(=O)C2c3[nH]c4ccccc4c3C3CCCCC3C2C1=O.CCCCN1C(=O)C2c3[nH]c4ccccc4c3[C@@H]3CCCCC3C2C1=O (configuration not stated) | 4.41 µM (inactive) | – | 26.7 µM (inactive) | 29.4 µM | 6.4 µM (inactive) | – | – | 16 µM (inactive) | – | 17.9 µM (inactive) | 7.93 µM (inactive) | – | 23.6 µM (inactive) | 35.9 µM (inactive) | 37.8 µM (inactive) | – | 13.7 µM (inactive) | – | 19.1 µM (inactive) | 37.2 µM (inactive)
7 | COc1cc(C2C(C(=O)Nc3cc(F)c(F)cc3F)=C(C)NC(C)=C2C(=O)Nc2cc(F)c(F)cc2F)ccc1O | 26.7 µM (inactive) | – | 30.9 µM (inactive) | – | 12.8 µM (inactive) | 0.982 µM (active) | – | 17.1 µM (inactive) | – | 15 µM (inactive) | 21.3 µM (inactive) | 22.5 µM (inactive) | 18.5 µM (inactive) | 17.7 µM (inactive) | 37.7 µM (inactive) | – | 28.3 µM (inactive) | 17.9 µM (inactive) | – | 23.4 µM (inactive)
8 | COc1ccc(-c2cc(C(O)C3CCCCN3)c3ccccc3n2)cc1 (configuration not stated) | 8.34 µM (inactive) | 15.9 µM (inactive) | 1.89 µM (inactive) | 14.2 µM | 11.7 µM (inactive) | 2.86 µM (inactive) | 14.3 µM (inactive) | 13.4 µM (inactive) | 5.08 µM (inactive) | 11.2 µM (inactive) | 14.7 µM (inactive) | 6.12 µM (inactive) | 6.25 µM (inactive) | 10.6 µM (inactive) | 9.59 µM (inactive) | 4 µM (inactive) | 10.4 µM (inactive) | 2.15 µM (inactive) | 3.37 µM (inactive) | –
9 | Clc1ncc(C(Cl)(Cl)Cl)nc1-c1ccccc1 | 1.95 µM (inactive) | 1.65 µM (inactive) | 1.87 µM (inactive) | 1.21 µM | 2.26 µM (inactive) | 1.99 µM (inactive) | 2.82 µM (inactive) | 2.24 µM (inactive) | 1.78 µM (inactive) | 2.19 µM (inactive) | 3.63 µM (inactive) | 2.27 µM (inactive) | 12.2 µM (inactive) | 2.86 µM (inactive) | 4.21 µM (inactive) | 1.96 µM (inactive) | 2.3 µM (inactive) | 2.14 µM (inactive) | 2.56 µM (inactive) | –
